Data on two molecules can be found in patent EP0104041B1, “Enzyme inhibitors” (priority 1982, dated 1984).

For one experiment, the target named is T1, human renin (Homo sapiens, UniProt P00797).
T1 sequence (P00797 67-406): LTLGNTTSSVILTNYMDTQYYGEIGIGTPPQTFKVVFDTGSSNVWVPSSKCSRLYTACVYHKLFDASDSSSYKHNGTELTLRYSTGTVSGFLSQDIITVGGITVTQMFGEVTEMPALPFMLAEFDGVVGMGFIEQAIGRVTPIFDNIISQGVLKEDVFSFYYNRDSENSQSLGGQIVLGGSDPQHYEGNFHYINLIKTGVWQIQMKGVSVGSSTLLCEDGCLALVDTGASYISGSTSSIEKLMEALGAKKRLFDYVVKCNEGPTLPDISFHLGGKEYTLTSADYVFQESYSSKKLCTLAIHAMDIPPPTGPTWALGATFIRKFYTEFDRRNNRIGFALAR
In words: renin inhibition, methods of the applicants' published European specification (0 045 665). The format is biochemical. The settings on record: against human renin. The source says:
(§1) This compound is the subject of Example 1 below.

For another experiment, the system named is baboon renin. In words: renin inhibition, baboon renin. Format: biochemical. The settings on record: against baboon renin; preliminary results.
Text: as §1

Non-standard residues stand in square brackets, D forms with d. Residues, ends and D or L forms follow the SMILES beside them. Sta = CC(C)C[C@H](N)[C@@H](O)CC(=O)O

Broadly, the IC50 is the concentration that inhibits the measured activity by half. A low value points to inhibition by little substance. At human renin, `CC[C@H](C)[C@H](NC(=O)[C@@H](NC(=O)C[C@H](O)[C@H](CC(C)C)NC(=O)[C@H](Cc1c[nH]cn1)NC(=O)[C@H](Cc1ccccc1)NC(=O)[C@@H]1CCCN1C(=O)[C@@H](N)Cc1c[nH]cn1)C(C)C)C(=O)N[C@@H](Cc1c[nH]cn1)C(=O)O` [Example 1] (H-HPFH[Sta]VIH-OH) came in with an IC50 of 16 nM. This counts as double-digit nanomolar.
For `CC[C@H](C)[C@H](NC(=O)[C@@H](NC(=O)C[C@H](O)[C@H](CC(C)C)NC(=O)[C@H](Cc1c[nH]cn1)NC(=O)[C@H](Cc1ccccc1)NC(=O)[C@@H]1CCCN1C(=O)[C@H](Cc1c[nH]cn1)NC(=O)[C@@H]1CCCN1)C(C)C)C(=O)N[C@@H](Cc1c[nH]cn1)C(=O)N[C@@H](CCCCN)C(=O)O` [Example H-189] (H-PHPFH[Sta]VIHK-OH), the IC50 with baboon renin was 12 nM; against human renin (preliminary results), 9 nM.
